Assay results: patent US8952024B2, “Herbicidal pyrimidone derivatives” (E I du Pont de Nemours and Company, priority 2009, dated 2015)

What was measured:
Assay in all cases: Test B pre-/postemergence plant response
Assay type in all cases: in vivo
[1] = test system: Italian ryegrass (Lolium multiflorum)
Summary of the method: (§1)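 Visual ratings on a 0–100 scale (100 = complete control) were made versus untreated controls 13–15 days after treatment in a greenhouse. Compounds in surfactant-containing non-phytotoxic solvent were applied preemergence to seeds in loam–sand blend or postemergence to 1- to 4-leaf plants (2–18 cm).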

[2] = test system: bermudagrass (Cynodon dactylon)
Summary of the method: as §1

[3] = test system: corn (Zea mays)
Summary of the method: as §1

[4] = test system: downy bromegrass (Bromus tectorum)
Summary of the method: as §1

[5] = test system: giant foxtail (Setaria faberii)
Summary of the method: as §1

[6] = test system: goosegrass (Eleusine indica)
Summary of the method: as §1

[7] = test system: green foxtail (Setaria viridis)
Summary of the method: as §1

[8] = test system: johnsongrass (Sorghum halepense)
Summary of the method: as §1

[9] = test system: large crabgrass (Digitaria sanguinalis)
Summary of the method: as §1

[10] = test system: morningglory (Ipomoea coccinea)
Summary of the method: as §1

[11] = test system: ragweed (common ragweed, Ambrosia elatior)
Summary of the method: as §1

[12] = test system: woolly cupgrass (Eriochloa villosa)
Summary of the method: as §1

[13] = test system: yellow nutsedge (Cyperus esculentus)
Summary of the method: as §1

[14] = Postemergence, 31 g ai/ha, 0 to 100 scale (0 no effect, 100 complete control)
[15] = Postemergence, 62 g ai/ha, scale 0 to 100 (0 no effect, 100 complete control)
[16] = Postemergence, 125 g ai/ha, scale 0 (no effect) to 100 (complete control), 13 to 15 days
[17] = Postemergence, 250 g ai/ha, scale 0 to 100 (0 no effect, 100 complete control), 13 to 15 days
[18] = Postemergence, 125 g ai/ha, scale 0 to 100 (0 no effect, 100 complete control)
[19] = Preemergence, 31 g ai/ha, scale 0 to 100 (0 no effect, 100 complete control)
[20] = Preemergence, 62 g ai/ha, scale 0 to 100 (0 no effect, 100 complete control)
[21] = Preemergence, 125 g ai/ha, scale 0 to 100, 0 no effect, 100 complete control
[22] = Preemergence, 250 g ai/ha, 0 to 100 scale

CCCCn1c(-c2cccc(F)c2)ncc(C(=O)C2=C(O)C3CCC(C3)C2=O)c1=O (centres unmarked) [Compound 237]
45: Plant response rating, Bromegrass, Downy [4, 15] | Plant response rating, Nutsedge, Yellow [13, 16] | Plant response rating, Nutsedge, Yellow [13, 17]
30: Plant response rating, Bromegrass, Downy [4, 14]
98: Plant response rating, Bermudagrass [2, 14] | Plant response rating, Bermudagrass [2, 15] | Plant response rating, Corn [3, 15] | Plant response rating, Foxtail, Giant [5, 14] | Plant response rating, Foxtail, Giant [5, 15] | Plant response rating, Foxtail, Giant [5, 16] | Plant response rating, Goosegrass [6, 15] | Plant response rating, Goosegrass [6, 16] | Plant response rating, Goosegrass [6, 17] | Plant response rating, Crabgrass, Large [9, 15] | Plant response rating, Ragweed [11, 15]
50: Plant response rating, Ryegrass, Italian [1, 14] | Plant response rating, Ryegrass, Italian [1, 15]
20: Plant response rating, Nutsedge, Yellow [13, 14]
100: Plant response rating, Bermudagrass [2, 16] | Plant response rating, Bermudagrass [2, 17] | Plant response rating, Corn [3, 16] | Plant response rating, Corn [3, 17] | Plant response rating, Foxtail, Giant [5, 17] | Plant response rating, Johnsongrass [8, 14] | Plant response rating, Johnsongrass [8, 15] | Plant response rating, Johnsongrass [8, 16] | Plant response rating, Johnsongrass [8, 17] | Plant response rating, Crabgrass, Large [9, 16] | Plant response rating, Crabgrass, Large [9, 17] | Plant response rating, Morningglory [10, 16] | Plant response rating, Morningglory [10, 17] | Plant response rating, Ragweed [11, 16] | Plant response rating, Ragweed [11, 17] | Plant response rating, Cupgrass, Woolly [12, 14] | Plant response rating, Cupgrass, Woolly [12, 15] | Plant response rating, Cupgrass, Woolly [12, 16] | Plant response rating, Cupgrass, Woolly [12, 17]
90: Plant response rating, Bromegrass, Downy [4, 16] | Plant response rating, Foxtail, Green [7, 15]
35: Plant response rating, Nutsedge, Yellow [13, 15]
80: Plant response rating, Foxtail, Green [7, 14]
95: Plant response rating, Bromegrass, Downy [4, 17] | Plant response rating, Goosegrass [6, 14] | Plant response rating, Foxtail, Green [7, 16] | Plant response rating, Foxtail, Green [7, 17] | Plant response rating, Crabgrass, Large [9, 14] | Plant response rating, Morningglory [10, 15] | Plant response rating, Ragweed [11, 14]
85: Plant response rating, Corn [3, 14] | Plant response rating, Morningglory [10, 14]
60: Plant response rating, Ryegrass, Italian [1, 16] | Plant response rating, Ryegrass, Italian [1, 17]

COCCn1c(-c2ccsc2)ncc(C(=O)C2=C(O)C3CCC(C3)C2=O)c1=O (centres unmarked) [Compound 228]
0: Plant response rating, Ryegrass, Italian [1, 14] | Plant response rating, Ryegrass, Italian [1, 15] | Plant response rating, Ryegrass, Italian [1, 17]
90: Plant response rating, Bermudagrass [2, 18] | Plant response rating, Corn [3, 17] | Plant response rating, Goosegrass [6, 17] | Plant response rating, Foxtail, Green [7, 15]
85: Plant response rating, Bermudagrass [2, 15] | Plant response rating, Corn [3, 15] | Plant response rating, Corn [3, 18] | Plant response rating, Foxtail, Giant [5, 14] | Plant response rating, Foxtail, Giant [5, 15] | Plant response rating, Goosegrass [6, 18] | Plant response rating, Foxtail, Green [7, 14]
100: Plant response rating, Foxtail, Green [7, 17] | Plant response rating, Johnsongrass [8, 17] | Plant response rating, Morningglory [10, 14] | Plant response rating, Morningglory [10, 15] | Plant response rating, Morningglory [10, 18] | Plant response rating, Morningglory [10, 17]
80: Plant response rating, Bermudagrass [2, 14] | Plant response rating, Corn [3, 14] | Plant response rating, Goosegrass [6, 14] | Plant response rating, Goosegrass [6, 15] | Plant response rating, Crabgrass, Large [9, 14] | Plant response rating, Ragweed [11, 15]
10: Plant response rating, Bromegrass, Downy [4, 18] | Plant response rating, Bromegrass, Downy [4, 17]
60: Plant response rating, Nutsedge, Yellow [13, 18]
70: Plant response rating, Ragweed [11, 14] | Plant response rating, Nutsedge, Yellow [13, 17]
45: Plant response rating, Nutsedge, Yellow [13, 15]
75: Plant response rating, Johnsongrass [8, 14] | Plant response rating, Johnsongrass [8, 15] | Plant response rating, Cupgrass, Woolly [12, 14]
40: Plant response rating, Nutsedge, Yellow [13, 14]
95: Plant response rating, Bermudagrass [2, 17] | Plant response rating, Foxtail, Giant [5, 18] | Plant response rating, Foxtail, Giant [5, 17] | Plant response rating, Johnsongrass [8, 18] | Plant response rating, Cupgrass, Woolly [12, 15] | Plant response rating, Cupgrass, Woolly [12, 18]
5: Plant response rating, Bromegrass, Downy [4, 14] | Plant response rating, Bromegrass, Downy [4, 15]
98: Plant response rating, Foxtail, Green [7, 18] | Plant response rating, Crabgrass, Large [9, 15] | Plant response rating, Crabgrass, Large [9, 18] | Plant response rating, Crabgrass, Large [9, 17] | Plant response rating, Ragweed [11, 17] | Plant response rating, Cupgrass, Woolly [12, 17]

CCc1ccccc1-n1c(-c2ccccc2)ncc(C(=O)C2=C(O)CCCC2=O)c1=O [Compound 255]
85: Plant response rating, Corn [3, 16] | Plant response rating, Corn [3, 17] | Plant response rating, Bromegrass, Downy [4, 17] | Plant response rating, Foxtail, Green [7, 14] | Plant response rating, Johnsongrass [8, 15] | Plant response rating, Crabgrass, Large [9, 14] | Plant response rating, Crabgrass, Large [9, 15] | Plant response rating, Morningglory [10, 15] | Plant response rating, Morningglory [10, 16] | Plant response rating, Ragweed [11, 21] | Plant response rating, Cupgrass, Woolly [12, 14]
50: Plant response rating, Bromegrass, Downy [4, 14] | Plant response rating, Ragweed [11, 14]
60: Plant response rating, Corn [3, 14] | Plant response rating, Bromegrass, Downy [4, 15] | Plant response rating, Johnsongrass [8, 20] | Plant response rating, Nutsedge, Yellow [13, 17]
98: Plant response rating, Foxtail, Giant [5, 15] | Plant response rating, Foxtail, Giant [5, 16] | Foxtail, Giant plant response rating [5, 22] | Plant response rating, Goosegrass [6, 17] | Plant response rating, Goosegrass [6, 20] | Johnsongrass plant response rating [8, 22] | Plant response rating, Cupgrass, Woolly [12, 17]
90: Plant response rating, Bermudagrass [2, 14] | Plant response rating, Goosegrass [6, 14] | Plant response rating, Goosegrass [6, 15] | Plant response rating, Foxtail, Green [7, 15] | Plant response rating, Foxtail, Green [7, 16] | Plant response rating, Foxtail, Green [7, 17] | Plant response rating, Johnsongrass [8, 16] | Plant response rating, Crabgrass, Large [9, 16] | Morningglory plant response rating [10, 22] | Plant response rating, Ragweed [11, 15] | Cupgrass, Woolly plant response rating [12, 22] | Nutsedge, Yellow plant response rating [13, 22]
30: Plant response rating, Ryegrass, Italian [1, 15] | Plant response rating, Ryegrass, Italian [1, 16] | Ryegrass, Italian plant response rating [1, 22]
45: Plant response rating, Foxtail, Giant [5, 20]
10: Plant response rating, Ryegrass, Italian [1, 14] | Plant response rating, Ryegrass, Italian [1, 21] | Plant response rating, Cupgrass, Woolly [12, 20] | Plant response rating, Nutsedge, Yellow [13, 14] | Plant response rating, Nutsedge, Yellow [13, 19]
15: Plant response rating, Foxtail, Giant [5, 19] | Plant response rating, Nutsedge, Yellow [13, 15] | Plant response rating, Nutsedge, Yellow [13, 16]
55: Plant response rating, Foxtail, Giant [5, 21] | Plant response rating, Morningglory [10, 20]
65: Plant response rating, Morningglory [10, 21] | Plant response rating, Ragweed [11, 19]
100: Plant response rating, Bermudagrass [2, 17] | Plant response rating, Bermudagrass [2, 19] | Plant response rating, Bermudagrass [2, 20] | Plant response rating, Bermudagrass [2, 21] | Bermudagrass plant response rating ([2]; Preemergence, 250 g ai/ha, 0 to 100 scale, 0 no effect, 100 complete control) | Plant response rating, Foxtail, Giant [5, 17] | Plant response rating, Goosegrass [6, 21] | Goosegrass plant response rating [6, 22] | Foxtail, Green plant response rating [7, 22] | Plant response rating, Crabgrass, Large [9, 21] | Crabgrass, Large plant response rating [9, 22] | Plant response rating, Morningglory [10, 17] | Ragweed plant response rating [11, 22]
75: Plant response rating, Corn [3, 15] | Plant response rating, Johnsongrass [8, 21] | Plant response rating, Morningglory [10, 14] | Plant response rating, Ragweed [11, 20] | Plant response rating, Cupgrass, Woolly [12, 21]
0: Plant response rating, Ryegrass, Italian [1, 19] | Plant response rating, Ryegrass, Italian [1, 20] | Plant response rating, Corn [3, 19] | Plant response rating, Corn [3, 20] | Plant response rating, Corn [3, 21] | Corn plant response rating [3, 22] | Plant response rating, Bromegrass, Downy [4, 19] | Plant response rating, Bromegrass, Downy [4, 20] | Plant response rating, Bromegrass, Downy [4, 21] | Plant response rating, Foxtail, Green [7, 19] | Plant response rating, Johnsongrass [8, 19] | Plant response rating, Cupgrass, Woolly [12, 19]
80: Plant response rating, Ryegrass, Italian [1, 17] | Plant response rating, Bromegrass, Downy [4, 16] | Plant response rating, Goosegrass [6, 19] | Plant response rating, Foxtail, Green [7, 20] | Plant response rating, Foxtail, Green [7, 21] | Plant response rating, Johnsongrass [8, 14] | Plant response rating, Crabgrass, Large [9, 19]
25: Plant response rating, Nutsedge, Yellow [13, 20]
95: Plant response rating, Bermudagrass [2, 15] | Plant response rating, Bermudagrass [2, 16] | Plant response rating, Foxtail, Giant [5, 14] | Plant response rating, Goosegrass [6, 16] | Plant response rating, Johnsongrass [8, 17] | Plant response rating, Crabgrass, Large [9, 17] | Plant response rating, Crabgrass, Large [9, 20] | Plant response rating, Ragweed [11, 16] | Plant response rating, Ragweed [11, 17] | Plant response rating, Cupgrass, Woolly [12, 15] | Plant response rating, Cupgrass, Woolly [12, 16]
40: Bromegrass, Downy plant response rating [4, 22] | Plant response rating, Morningglory [10, 19] | Plant response rating, Nutsedge, Yellow [13, 21]
